Measurements: patent US20240277873A1, “ULTRABRIGHT […] PROBES FOR DETECTION AND IMAGING” (Nanyang Technological University, priority 2021, published 2024)
Residues, ends and D or L forms follow the SMILES beside them. *: point of attachment. X1 = COC(=O)/C=C/c1ccc(C2(OC)OOC23C2CC4CC(C2)CC3C4)cc1OCc1ccc(N*)cc1

Legend:
[1] = obtained from the literature (ACS Cent. Sci. 2017, 3, 349-358); cited from earlier work
[2] = Half-life and CL emission of uncaged BTPD in PBS; type: physicochemical; settings: in PBS (10% DMSO) at 37° C.
Experimental: FIG. 13 depicts the half-lives of BTPDSu (20 μM) and BTPD (20 μM) in pure DMSO upon addition of excess O2^•- (100 μM) and in 10 mM PBS (10% DMSO, pH 7.4) at 37° C., respectively.

neutrophils = assay: In vitro cell chemiluminescent imaging; type: cell-based; settings: probe 10 μM
Experimental: 3T3 cells and immune cells (neutrophils, DC cells, T-cells and macrophage) (10^4 cells) were seeded into confocal cell culture dishes (dia. 15 mm) and incubated for 24 h. […] After incubation, the medium was removed, and the cells were washed thrice. Chemiluminescence imaging of the cells were recorded on LX71 inverted microscope (Olympus), which was equipped with infinity 3-1 (Lumenera) CCD camera. During imaging, the excitation light was blocked and the images were recorded under an open filter, with an acquisition time of 60 s.

[3] = Blood test: chemiluminescence after incubation in healthy mouse blood; settings: 20 μM, 30 min, 100 μL blood
Experimental: BTPDNe (20 μM) and MPDNe (20 μM) were incubated for 30 min in healthy mouse blood (100 μL), respectively. Chemiluminescence intensities were measured by IVIS system bioluminescence with an acquisition time of 60 s.

NE = molecular target: T1, NE (Homo sapiens, UniProt P08246); assay: Chemiluminescence and fluorescence changes of BTPDNe and MPDNe in the presence of NE (response, selectivity, LOD, half-life); type: biochemical
T1 sequence (P08246 30-267): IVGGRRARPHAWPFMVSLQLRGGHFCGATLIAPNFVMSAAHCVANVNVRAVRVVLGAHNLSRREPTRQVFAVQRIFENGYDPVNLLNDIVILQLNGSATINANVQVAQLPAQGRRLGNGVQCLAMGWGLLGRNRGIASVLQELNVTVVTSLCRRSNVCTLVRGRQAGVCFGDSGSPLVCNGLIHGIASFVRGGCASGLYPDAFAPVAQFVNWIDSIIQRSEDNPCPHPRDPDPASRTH
Experimental: Chemiluminescence and fluorescence changes of BTPDNe (20 μM) were determined in the presence of NE (0.1 U/ml), other different enzymes (˜0.1 U/mL, APN, ALP, Cas-3, cat B, GGT, β-gal and NTR) in 50 mM Tris, 1 M NaCl, 0.05% (w/v) Brij-35, pH 7.5 at 37° C. after 30 min incubation.
Chemiluminescence and fluorescence changes of BTPDNe and MPDNe (20 μM) in the presence of NE (0.1 U/mL), or other different enzymes (˜0.1 U/mL, APN, ALP, Cas-3, Cat B, GGT, β-gal, NTR, CatG and PR3) were tested after 30 min incubation in 50 mM Tris, 1 M NaCl, 0.05% (w/v) Brij-35, pH 7.5 at 37° C.
To determine the LOD for NE enzyme detection, the chemiluminescence of BTPDNe was recorded in 50 mM Tris, 1 M NaCl, 0.05% (w/v) Brij-35, pH 7.5 at 37° C. with different concentrations of NE (0, 0.05, 0.1, 0.5, 1, and 2 U/ml) for 30 min incubation. Then, initial reaction velocity was calculated.

LPS-treated mice = assay: Real-time chemiluminescence imaging in LPS-induced peritonitis model; type: in vivo; settings: LPS-treated mice
Experimental: The model was induced by intraperitoneal injection of LPS (15 ng) in 100 μL of PBS or PBS only as a control. Probe BTPDNe (40 μM·Kg^−1) or MPDNe (40 μM·Kg^−1) in PBS (10 mM, pH 7.4) containing 10% DMSO was intraperitoneally injected in mice. Then, chemiluminescent signals at different post-injection timepoints (0, 5, 10, 20, 45 and 60 min) were recorded using IVIS system bioluminescence with acquiring time of 120 s. After 3 h, the peritoneum was flushed with PBS (5 mL)+EDTA (5 mM). After erythrocyte lysis, neutrophils from C57Bl/6 mice were stained with a PE-labeled CD. After treatment with LPS for 3 h, CD11c antibody and an APC-labeled Ly6G antibody were added to the neutrophils, and the neutrophils were analyzed for double-positive events using flow cytometry (BD Biosciences). Data analysis was performed using Flowjo V10. Neutrophils were gated as CD45+CD11b+Ly6G+cells after the exclusion of doublets.
Fluorescence and chemiluminescence in vivo imaging of the probes were measured by an IVIS spectrum imaging system. Chemiluminescence imaging of the cells was recorded on LX71 inverted microscope. Tissue slices were cut by Leica, Germany slicer and imaged by a Nikon ECLIPSE 80i microscope. The images of tissue sections and cells were recorded with a LSM800 confocal laser scanning microscope. The white light was provided by 150 W LED High Bay Thermo Light.

[4] = Chemiluminescence kinetic studies (half-lives, CL emission) of caged probes in the presence of O2•-; type: physicochemical; settings: for CL Emission: caged probe after activation
Experimental: FIG. […]
[…] The chemiluminescent intensities were plotted as a function of time.
[…] The chemiluminescence signal was recorded by the microplate reader to calculate half-lives of BTPDSu at different pHs.

[5] = Chemiluminescence quantum yield in the presence of O2•-; type: physicochemical; settings: probe 20 μM, O2•- 100 μM, PBS (10 mM, pH 7.4, 10% DMSO), 37° C.
Experimental: The chemiluminescence QYs of BOPDSu, BTPDSu, MBPDSu, and MPDSu (20 μM) were measured in the presence of O2^•- (100 μM) in PBS (10 mM, pH 7.4, 10% DMSO) at 37° C. The fluorescence QYs were determined by using Rhodamine B as a standard dye (QY 36%) in PBS (10 mM, pH 7.4) (X. Zhen et al., ACS Nano 2016, 10, 6400-6409). The fluorescence QY of AMPD was obtained from the literature (O. Green et al., ACS Cent. Sci. 2017, 3, 349-358).

[6] = Chemiluminescence and fluorescence changes of probes toward O2•- (KO2): response, selectivity, LOD
Experimental: The chemiluminescence and fluorescence changes of BOPDSu, BTPDSu, MBPDSu and MPDSu (20 μM) were recorded at different concentrations of RONS (40 μM) and other metal ions (100 μM). BOPDSu, BTPDSu, MBPDSu and MPDSu (20 μM) in phosphate buffered saline (PBS) buffer were treated in the presence of different RONS (40 μM), and metal ions (Mg^2+, Ca^2+ or Fe^2+, 100 μM) at 37° C.
The chemiluminescence signals were recorded at different concentrations of KO2 (0, 50, 100, 250, 500 and 1000 nM). Then, the limit of detection (LOD) of BOPDSu, BTPDSu, MBPDSu and MPDSu were calculated by chemiluminescence intensities based on the equation: LOD=3σ/k, where σ is the standard deviation of emission intensity of blank, and k is the slope of plot of emission intensities.

[7] = Stability of BTPDSu at different pHs (UV spectra); type: physicochemical; settings: 20 μM, pH 5-9 buffers with 10% DMSO, 2 h, 37° C.
Experimental: BTPDSu and ABTPD (20 μM) were stored at different pHs (pH 5, 6, 7, 8 and 9) containing 10% DMSO for 2 h. Then, UV spectra of BTPDSu and fluorescence spectra of ABTPD were measured at different pHs.

COC(=O)/C=C/c1ccc(C(=O)OC)cc1O [AMPD]
ΦFl, fluorescence QY of activated probe [1]: 3.1%

COC1(c2ccc(-c3nc4ccccc4s3)c(O)c2)OOC12C1CC3CC(C1)CC2C3 (centres unmarked) [BTPD]
CL Emission [2]: ~515 nm

COC(=O)/C=C/c1ccc(C2(OC)OOC23C2CC4CC(C2)CC3C4)cc1OCc1ccc(NC(=O)[C@@H](NC(=O)[C@@H]2CCCN2C(=O)[C@H](C)NC(=O)[C@H](C)NC(C)=O)C(C)C)cc1 (some centres unmarked) [MPDNe, reference compound] (Ac-AAPV-X1)
activated chemiluminescence signal in neutrophils, 30 min (neutrophils; incubation 30 min): 56.4 pixels | activated chemiluminescence signal in neutrophils, 1 h (neutrophils; incubation 1 h): 16.2 pixels | chemiluminescence intensities after incubation with healthy mouse blood [3]: Negligible | selectivity towards NE over other enzymes (NE; APN, ALP, Cas-3, cat B, GGT, furin, β-gal, NTR, PR3, CatG (~0.1 U/mL)): high selectivity | chemiluminescence enhancement after incubation with NE (NE; probe 20 μM, NE 0.1 U/mL, 50 mM Tris, 1 M NaCl, 0.05% Brij-35, pH 7.5, 37° C., 30 min, BTPDNe at 515 nm, MPDNe at 550 nm): 65.1 fold | chemiluminescent signals after 60 min (LPS-treated mice; 60 min post injection): not | maximum chemiluminescent signal enhancement in peritoneum relative to negative control group (LPS-treated mice; 3 h post LPS, i.p. probe 40 μM·kg^−1): 8.5 fold

benzothiazole-phenoxyl-dioxetane [BTPDSu]
chemiluminescence signal after 4 h incubation with O2•- ([4]; BTPDSu 100 μM, O2•- 4 eq., PBS (10 mM, pH 7.4, 10% DMSO), 37° C.): still observable by naked eye | CL Emission ([4]; in PBS (10% DMSO) at 37° C.): 520 nm | CL Emission ([4]; in pure DMSO): 485 nm | ΦCl, chemiluminescence QY [5]: 0.137 einsteins/mol | LOD against O2•- ([6]; KO2 0-1000 nM, PBS (10 mM, pH 7.4, 10% DMSO), 37° C., LOD=3σ/k): 6.8 nM | chemiluminescence intensity increase after addition of O2•- ([6]; probe 20 μM, O2•- 40 μM for 10 s, PBS pH 7.4, 37° C., at 480 / 520 / 580 / 540 nm): 2960 times | fluorescent signal enhancement upon cleavage by O2•- ([6]; probe 20 μM, PBS (10 mM, pH 7.4, 10% DMSO), 37° C., at ~486 / 532 / 582 / 542 nm): 42.1 folds | stability: UV spectra at different pHs [7]: no obvious changes
